This assay has as its system K14 mouse model of type 2 Gaucher disease. The assay can be described thus: K14 mouse model of type 2 Gaucher disease. It counts as in vivo. The text has this: As noted above, Gaucher Disease results from a deficiency of the lysosomal enzyme glucocerebrosidase (GC). In the most common phenotype of Gaucher disease (type 1), pathology is limited to the reticuloendothelial and skeletal systems and there are no neuropathic symptoms. See Barranger, Glucosylceramide lipidosis: Gaucher disease. In: Scriver C R B A, Sly W S, Valle D, editor. The Metabolic Basis of Inherited Disease. New York: McGraw-Hill. pp. 3635-3668 (2001). In neuropathic Gaucher disease (nGD), subdivided into type 2 and type 3 Gaucher disease, the deficiency of glucocerebrosidase (GC) causes glucosylceramide (GluCer; GL-1) and glucosylsphingosine (GluSph) to accumulate in the brain, leading to neurologic impairment. Type 2 Gaucher disease is characterized by early onset, rapid progression, extensive pathology in the viscera and central nervous system, and death usually by 2 years of age. Type 3 Gaucher disease, also known as subacute nGD, is an intermediate phenotype with varying age of onset and different degrees of severity and rates of progression. Goker-Alpan et al., The Journal of Pediatrics 143: 273-276 (2003). A recent development has produced the K14 lnl/lnl mouse model of type 2 Gaucher disease (hereinafter, the “K14 mouse”); this mouse model closely recapitulates the human disease showing ataxia, seizures, spasticity and a reduced median lifespan of only 14 days. Enquist et al., PNAS 104: 17483-17488 (2007).
As in patients with nGD, several mouse models of the disease have increased levels of GluCer and GluSph in the brain due to the deficiency in GC activity. Liu et al., PNAS 95: 2503-2508 (1998) and Nilsson, J. Neurochem 39: 709-718 (1982). The “K14” mice display a neuropathic phenotype that shares many pathologic features with type 2 Gaucher disease, such as neurodegeneration, astrogliosis, microglial proliferation, and increased levels of GluCer and GluSph in specific brain regions. Enquist et al. (2007).
Clinical management of patients affected by nGD poses a challenge for treating physicians both because of the severity of type 2 disease and the inability of the current therapies to cross the blood brain barrier (BBB). Current treatment of non-nGD relies on the intravenous delivery of recombinant human glucocerebrosidase (Imiglucerase; Cerezyme™) to replace the missing enzyme or the administration of glucosylceramide synthase inhibitors to attenuate substrate (GL-1) production. […] Current small molecule glucosylceramide synthase inhibitors in the clinic are not likely to address the neuropathic phenotypes of nGD.

We go through one compound from patent US9518049B2, “Salt forms of (S)-quinuclidin-3-yl (2-(2-(4-fluorophenyl)thiazol-4-yl)propan-2-yl)carbamate” (Genzyme Corporation, priority 2013, dated 2016).

Turning to `CC(C)(NC(=O)OC1CN2CCC1CC2)c1cccc(-c2ccc(F)cc2)c1` (stereo not shown) [Gz161, Quinuclidin-3-yl (2-(4′-fluoro-[1,1′-biphenyl]-3-yl)propan-2-yl)carbamate], the brain neuropathology result is on record as “reduced” and the lifespan result is recorded as “extended”. Where the note is “brain”, the “brain GluCer” value is reported as “reduce” and the “brain GluSph” value was “reduce”.
